Results as given in patent publication US11053207B2, “Indoleamine-2,3-dioxygenase inhibitor and preparation method therefor” (SHANGHAI INSTITUTE OF ORGANIC CHEMISTRY, CHINESE ACADEMY OF …, priority 2014, dated 2021).
“And” between values parts separate entries of the source, which are not always exact repeats. Identical values can stand only once.

Tests used:
[1] = molecular target: IDO enzyme (Homo sapiens (Human), UniProt P14902); experiment: IDO enzyme inhibitory activity; type: biochemical; details: OD321 nm, 60 min
Description: Firstly, the IDO gene was amplified by PCR, the PCR amplification products were recovered, and then the pET28a plasmid (purchased from Shanghai Baoman Biotechnology Co., Ltd.) and the IDO gel recovery products were digested with EcoR I and Xho I restriction endonucleases (37° C., digestion for 2 h), electrophorized and recovered. The recovered products were ligated overnight by a T4 ligase and then the ligation products were added to DH5α competent cells, placed on ice for 30 min, heat-shocked at 42° C. for 90 s, cultured on a shaker, and seeded to a plate. Monoclonies were picked, identified by PCR and then by sequencing.
The constructed BL21 containing the pET28a-IDO plasmid was cultured at 37° C. to OD600=0.6-0.8, and a final concentration of 7 μM of chlorine methemoglobin and 1 mM of IPTG (isopropyl-β-D-thiogalactoside) were added for induction at 28° C. for 4 h; after the induction, the cell was centrifuged at 6000 rpm at 4° C., the collected cells were washed once with 20 mM PBS (pH6.5), and centrifuged and collected again.
The collected cells were resuspended with a lysis solution (20 mM PBS pH 6.5), ultrasonically lysed (40% of power, lysis for 20 min, placed on ice), the lysed bacteria were centrifuged at 13000 rpm for 15 min, precipitate was discarded and the supernatant was maintained; the nickel column was equilibrated with the lysis solution (20 mM PBS pH 6.5) for 3 column volumes, and then the lysis supernatant was loaded onto the nickel column; after loading, four column volumes of a rinsing solution (20 mM PBS pH 6.5, 20 mM imidazole) were used for washing, and finally protein was eluted with eluent (20 mM PBS pH 6.5, 250 mM imidazole); the eluted protein solution was dialyzed for 4 h, and the dialysis solution was 20 mM PBS, pH 6.5. After the dialysis, the protein sample was concentrated, packed, flash frozen by liquid nitrogen, and stored at −80° C. for further use.
Firstly, the compound was subject to a 3-fold gradient dilution. 1 μL of each concentration was added to a 96-well plate; 50 μL of the IDO enzyme solution (final concentration 600 ng/100μL) was added: 25 μL of substrate 1 mixture solution was added, 25 μL of substrate 2 mixture solution was added to initiate the reaction. Finally, the plate was read at OD321 nm, 60 min.

[2] = test system: Hela cells; experiment: Test for cell activity (Hela cells, interferon γ, kynurenine read at 480 nm); type: cell-based; details: human interferon γ 50 ng/mL, 48 h
Description: Hela cells (100 μL) were inoculated on a 96-well plate at an inoculation amount of 5×10^3 per well and grown overnight. The next day, after the compound was diluted, 1 μL was added to a 96-well plate and then 100 μL of medium containing human interferon y (final concentration of 50 ng/mL) was added to the 96-well plate to allow the final volume to be 200 μL. 48 h after incubating, 140 μL of supernatant in each well was transferred to a new 96-well plate. 10 μL of 6.1 N trichloroacetic acid was added to each well and mixed and incubated at 50° C. for 30 min, IDO catalyzed N-formyl canine urea to become canine urea. The reaction mixture was centrifuged at 2500 rpm for 10 minutes to remove the precipitate. 100 μL of supernatant in each well was transferred to a new 96-well plate and mixed with 100 μL of 2% dimethylaminobenzaldehyde acetic acid solution. After the canine urea was separated, the value was measured at 480 nm using a SPECTRAmax i3 reader.

[3] = Pharmacokinetics of compound 6 in ICR mice after oral compound 13 (prodrug); type: in vivo; details: for AUMC0-inf / AUMC0-t / Kel / MRTPO: compound 6 in ICR mice after oral compound 13 30 mg/kg
Description: Compound 13 was orally administered to ICR mice. Blood samples were collected at different time points. LC-MS/MS was used to determine the concentration of compound 6 in the plasma of mice after administration of the test substance, and the relevant pharmacokinetic parameters were calculated, the pharmacological properties of compound 6 in mice was investigated.
Experimental design: 3 ICR mice, provided by Suzhou Zhaoyan New Drug Research and Development Co., Ltd.; the experiment was carried out according to Table 6.
Each animal was anesthetized with isoflurane and thereafter about 25 μL of blood was collected through the eyepit, anticoagulated with EDTAK2, the collecting time points were: before administration of the test substance (0 hr) and 15 min, 30 min, 1 h, 2 h, 4 h, 6 h, 8 h and 24 h after administration of the test substance. Blood samples were collected and placed on ice and the plasma was centrifuged and separated within 1 hour (centrifugal conditions: 5000 rpm, 10 minutes, 4° C.). The collected plasma was stored at −20° C. before analysis.
Data acquisition and control system software was the Analyst1.5.1 software (Applied Biosystem). The sample peak integral method was automatic integration; The ratio of the peak area of the sample and the peak area of the internal standard was taken as the index and the concentration of the sample was regressed. Regression method: linear regression, the weight coefficient was 1/X^2. Pharmacokinetic parameters were analyzed with a non-compartmental model using WinNonlin Professional v6.3 (Pharsight, USA). Cmax is the measured maximum blood concentration, and the area under the blood concentration-time curve AUC(0→t) was calculated from the trapezoidal method, and Tmax is the peak blood concentration time after administration. The experimental data is expressed as “mean±SD, n≥3” or “mean” (mean, n=2).

IDO enzyme, sequence (P14902 whole entry): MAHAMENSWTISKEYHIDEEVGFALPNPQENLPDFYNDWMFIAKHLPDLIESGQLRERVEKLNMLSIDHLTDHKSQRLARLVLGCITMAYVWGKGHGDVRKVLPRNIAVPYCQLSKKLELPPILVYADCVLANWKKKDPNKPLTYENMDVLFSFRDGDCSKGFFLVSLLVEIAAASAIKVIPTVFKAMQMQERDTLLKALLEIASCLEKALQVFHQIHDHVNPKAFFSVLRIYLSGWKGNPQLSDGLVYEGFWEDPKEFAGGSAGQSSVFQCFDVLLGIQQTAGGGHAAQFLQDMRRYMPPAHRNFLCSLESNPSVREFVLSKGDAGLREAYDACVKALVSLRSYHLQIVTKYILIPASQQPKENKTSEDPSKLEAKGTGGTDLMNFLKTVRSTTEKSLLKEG

CS(=O)(CCNc1nonc1/C(=N/O)Nc1ccc(F)c(Br)c1)=NC#N (racemic) [compound 6, (±)(Z)—N-(3-bromo-4-fluorophenyl)-N′-hydroxy-4-((2-(thio-methylsulfoxidecyanoimine)ethyl)amino)-1,2,5-oxadiazole-3-carboxamidine]
IC50 [1]: 11 nM | IC50 [2]: 1.8 nM | pharmacokinetic parameters (overall judgement) ([3]; ICR mice, after oral compound 13): excellent pharmacokinetic parameters | AUMC0-inf ([3]; individual mouse): 46297 hr*hr*ng/mL and 13854 hr*hr*ng/mL and 21447 hr*hr*ng/mL | AUMC0-t ([3]; individual mouse): 19793 hr*hr*ng/mL and 12189 hr*hr*ng/mL and 16309 hr*hr*ng/mL | Kel ([3]; individual mouse): 0.0695 h⁻¹ and 0.156 h⁻¹ and 0.123 h⁻¹ | MRTPO ([3]; individual mouse): 15.0 h and 6.25 h and 7.99 h | AUMC0-inf ([3]; mean): 27199 hr*hr*ng/mL | AUMC0-t ([3]; mean): 16097 hr*hr*ng/mL | Kel ([3]; mean): 0.116 h⁻¹ | MRTPO ([3]; mean): 9.76 ± 4.64 h and 9.76 h
